The experiment addresses human PRMT6 (Homo sapiens, UniProt Q96LA8). The experiment is described as follows: biochemical. From the text: General Materials. S-adenosylmethionine (SAM), S-adenosylhomocysteine (SAH), bicine, Tween20, dimethylsulfoxide (DMSO), bovine skin gelatin (BSG), sodium butyrate and Tris(2-carboxyethyl)phosphine hydrochloride solution (TCEP) were purchased from Sigma-Aldrich at the highest level of purity possible. ^3H-SAM was purchase from American Radiolabeled Chemicals with a specific activity of 80 Ci/mmol. 384-well streptavidin Flashplates were purchased from PerkinElmer.
Substrates. Peptide representative of human histone H4 residues 36-50 was synthesized with an N-terminal linker-affinity tag motif and a C-terminal amide cap by 21st Century Biochemicals. The peptide was purified by high-performance liquid chromatography (HPLC) to greater than 95% purity and confirmed by liquid chromatography mass spectrometry (LC-MS). The sequence was Biot-Ahx-[…]-amide and contained a monomethylated lysine at position 44 (SEQ ID NO.:5).
Molecular Biology: Full-length human PRMT6 (NM_018137.2) transcript clone was amplified from an HEK 293 cDNA library, incorporating a flanking 5′ sequence encoding a FLAG tag ([…]) (SEQ ID NO.:6) fused directly to Ser 2 of PRMT6 and a 3′ sequence encoding a hexa His sequence (HHHHHH) (SEQ ID NO.: 17) fused directly to Asp 375. The amplified gene was subcloned into pFastBacMam (Viva Biotech).
Protein Expression. Recombinant baculovirus were generated according to Bac-to-Bac kit instructions (Life Technologies). […] Infections were carried out at 37° C. for 48 hours, harvested by centrifugation, and stored at −80° C. for purification.
Protein Purification. […] Column was washed with 20 mM imidazole in the same buffer and Flag-PRMT6-His was eluted with 150 mM imidazole. Pooled fractions were dialysed against buffer Ni-A and further purified by anti-flag M2 affinity chromatography. Flag-PRMT6-His was eluted with 200 ug/ml FLAG peptide in the same buffer. Pooled fractions were dialysed in 20 mM Tris, 150 mM NaCl, 10% glycerol and 5 mM β-mercaptoethanol, pH 7.8. The purity of recovered protein was 95%.
General Procedure for PRMT6 Enzyme Assays on Peptide Substrates. The assays were all performed in a buffer consisting of 20 mM Bicine (pH=7.6), 1 mM TCEP, 0.005% BSG, and 0.002% Tween 20, prepared on the day of use. Compounds in 100% DMSO (1 ul) were spotted into a polypropylene 384-well V-bottom plates (Greiner) using a Platemate Plus outfitted with a 384-channel head (Thermo Scientific). DMSO (1 ul) was added to Columns 11, 12, 23, 24, rows A-H for the maximum signal control and 1 ul of SAH, a known product and inhibitor of PRMT6, was added to columns 11, 12, 23, 24, rows I-P for the minimum signal control. A cocktail (40 ul) containing the PRMT6 enzyme was added by Multidrop Combi (Thermo-Fisher). The compounds were allowed to incubate with PRMT6 for 30 min at room temperature, then a cocktail (10 ul) containing SAM and peptide was added to initiate the reaction (final volume=51 ul). The final concentrations of the components were as follows: PRMT6 was 1 nM, ^3H-SAM was 200 nM, non-radiolabeled SAM was 250 nM, peptide was 75 nM, SAH in the minimum signal control wells was 1 mM, and the DMSO concentration was 2%. The assays were stopped by the addition of non-radiolabeled SAM (10 ul) to a final concentration of 400 uM, which dilutes the ^3H-SAM to a level where its incorporation into the peptide substrate is no longer detectable. 50 ul of the reaction in the 384-well polypropylene plate was then transferred to a 384-well Flashplate and the biotinylated peptides were allowed to bind to the streptavidin surface for at least 1 hour before being washed once with 0.1% Tween20 in a Biotek EL×405 plate washer. The plates were then read in a PerkinElmer TopCount plate reader to measure the quantity of ^3H-labeled peptide bound to the Flashplate surface, measured as disintegrations per minute (dpm) or alternatively, referred to as counts per minute (cpm). […]

Where [1] appears, read: PRMT6 biochemical evaluation (numerical), single experiment or average of multiple experiments.
The mark [2] stands for this setting: biochemical evaluation, peptide substrate, read-out: PRMT6 IC50.
The mark [3] stands for this setting: single experiment or average of multiple experiments, read-out: PRMT6 biochemical evaluation (numerical).

Where two headings read alike, the source gives them in different places.

Chain of human PRMT6 (Q96LA8 with tags, fused parts or gaps): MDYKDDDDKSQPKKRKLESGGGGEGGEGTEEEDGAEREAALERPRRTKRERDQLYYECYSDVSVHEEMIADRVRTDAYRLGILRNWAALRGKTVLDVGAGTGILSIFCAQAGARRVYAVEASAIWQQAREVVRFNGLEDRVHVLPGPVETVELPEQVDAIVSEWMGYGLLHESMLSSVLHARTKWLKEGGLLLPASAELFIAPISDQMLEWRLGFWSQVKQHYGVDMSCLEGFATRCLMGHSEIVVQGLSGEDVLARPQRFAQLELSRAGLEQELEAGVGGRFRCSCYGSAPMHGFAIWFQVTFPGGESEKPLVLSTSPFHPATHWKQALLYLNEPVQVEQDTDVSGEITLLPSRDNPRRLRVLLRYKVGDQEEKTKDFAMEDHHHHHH

In turn, `CNCCN(C)Cc1n[nH]c2ccc(N3CCC4(CCCCC4)CC3)cc12` [Compound 43, N^1-((5-(3-azaspiro[5.5]undecan-3-yl)-1H-indazol-3-yl)methyl)-N^1,N^2-dimethylethane-1,2-diamine] came in with an IC50 of less than 100 nM. Under setting [1], the IC50 was 1800 nM.
Consider `CNCCN(C)Cc1n[nH]c2ccc(C3CCOCC3)cc12` [Compound 44, N^1,N^2-dimethyl-N^1-((5-(tetrahydro-2H-pyran-4-yl)-1H-indazol-3-yl)methyl)ethane-1,2-diamine], for which the IC50 reads like this: under setting [2], less than 100 nM; under setting [3], 72 nM.
As for `CNCCN(C)Cc1n[nH]c2ccc(C3=CCOCC3)cc12` [Compound 45], the IC50 under setting [2] was less than 100 nM and the IC50 under setting [3] was found to be 58.1 nM.
In the same order, the values of `CNCCN(C)Cc1n[nH]c2ccc(N3CCCCC3)cc12` [Compound 46, N^1,N^2-dimethyl-N^1-((5-(piperidin-1-yl)-1H-indazol-3-yl)methyl)ethane-1,2-diamine] are less than 100 nM and 40.6 nM.
For `CNCCN(C)Cc1n[nH]c2ccc(C3CCCCC3)cc12` [Compound 47, N^1-((5-cyclohexyl-1H-indazol-3-yl)methyl)-N^1,N^2-dimethylethane-1,2-diamine], the IC50 is less than 100 nM under setting [2] and 74.3 nM under setting [3].
Turning to `CNCCN(C)Cc1n[nH]c2ccc(C3=CCCCC3)cc12` [Compound 48], the IC50 under setting [2] was less than 100 nM and the IC50 under setting [3] was 65.6 nM.
In the same order, the values of `CNCCN(C)Cc1n[nH]c2ccc(Oc3ccccc3C(F)(F)F)cc12` [Compound 49] are 3010 to 10000 nM and 51.9 nM.
Regarding `CNCCN(C)Cc1n[nH]c2ccc(OCC3CCOCC3)cc12` [Compound 50], the IC50 runs as follows: under setting [2], 3010 to 10000 nM; under setting [3], 45 nM.
In the same order, the values of `CNCCN(C)Cc1n[nH]c2ccc(OCC3CCN(C(C)=O)CC3)cc12` [Compound 51] are 1010 to 3000 nM and greater than 10000 nM.
Take `CNCCN(C)Cc1n[nH]c2ccc(OCC3CCCC3)cc12` [Compound 52]: the IC50 reads like this: under setting [2], 1010 to 3000 nM; under setting [3], 6020 nM.
Consider `CNCCN(C)Cc1c2cc(OCc3ccc(C#N)cc3)ccc2nn1C1CCOCC1` [Compound 53], for which the IC50 was 1010 to 3000 nM under setting [2] and 2550 nM under setting [3].
Take `CNCCN(C)Cc1n[nH]c2ccc(OCC3CCCCC3)cc12` [Compound 54]: the IC50 under setting [2] lay in the range of 101 to 1000 nM and the IC50 under setting [3] worked out at 2330 nM.
In the same order, the values of `CNCCN(C)Cc1n[nH]c2ccc(Oc3ccc(C)cc3)cc12` [Compound 55] are 101 to 1000 nM and 1020 nM.
Turning to `CNCCN(C)Cc1n[nH]c2ccc(Oc3ccccc3OC(C)C)cc12` [Compound 56], the IC50 by setting is: under setting [2], 101 to 1000 nM; under setting [3], 774 nM.
In the same order, the values of `CNCCN(C)Cc1n[nH]c2ccc(Oc3ccc(Cl)cc3)cc12` [Compound 57] are 101 to 1000 nM and 479 nM.
As to `CNCCN(C)Cc1n[nH]c2ccc(OC3CCN(C(C)=O)CC3)cc12` [Compound 58, 1-(4-((3-((methyl(2-(methylamino)ethyl)amino)methyl)-1H-indazol-5-yl)oxy)piperidin-1-yl)ethan-1-one], the IC50 reads like this: under setting [2], 101 to 1000 nM; under setting [3], 447 nM.
In turn, `CNCCN(C)Cc1n[nH]c2ccc(Oc3ccc(OC)cc3)cc12` [Compound 59] gave an IC50 of 101 to 1000 nM. The compound also yielded an IC50 under setting [1] of 306 nM.
In the case of `CNCCN(C)Cc1n[nH]c2ccc(Oc3ccccc3C)cc12` [Compound 60], the IC50 is 101 to 1000 nM under setting [2] and 243 nM under setting [3].
In the case of `CNCCN(C)Cc1n[nH]c2ccc(Oc3ccc(OC(C)C)cc3)cc12` [Compound 61], the IC50 runs as follows: under setting [2], 101 to 1000 nM; under setting [3], 236 nM.
In the same order, the values of `CNCCN(C)Cc1nn(C(C)C)c2ccc(OCc3ccc(C#N)cc3)cc12` [Compound 62] are 101 to 1000 nM and 191 nM.
In the same order, the values of `CCOc1ccc2[nH]nc(CN(C)CCNC)c2c1` [Compound 63] are 101 to 1000 nM and 164 nM.
In the same order, the values of `CNCCN(C)Cc1n[nH]c2ccc(OC(C)C)cc12` [Compound 64] are less than 100 nM and 107 nM.

The record behind these values is patent US9765035B2 (priority 2013, dated 2017).
